Legend:
[1] = target: Xanthine dehydrogenase/oxidase (Bos taurus, UniProt P80457); assay: Inhibition of bovine milk xanthine oxidase assessed as decrease of uric acid formation preincubated for 5 mins by UV-visible spectrophotometric analysis
[2] = system: Mus musculus; assay: Antihyperuricemic activity in Swiss mouse assessed as decrease of potassium oxonate-induced uric acid level in serum at 20 mg/kg, ip after 3 hrs by HPLC analysis (reference value: 7.80 +/- 0.34 uM); type: functional; conditions: route intraperitoneal
[3] = system: Mus musculus; assay: Antihyperuricemic activity in Swiss mouse assessed as decrease of potassium oxonate-induced uric acid level in serum at 10 mg/kg, ip after 3 hrs by HPLC analysis (reference value: 7.80 +/- 0.34 uM); type: functional; conditions: route intraperitoneal
[4] = system: Mus musculus; assay: Antihyperuricemic activity in Swiss mouse assessed as decrease of potassium oxonate-induced uric acid level in serum at 50 mg/kg, ip after 3 hrs by HPLC analysis (reference value: 7.80 +/- 0.34 uM); type: functional; conditions: route intraperitoneal

Chain of Xanthine dehydrogenase/oxidase (P80457 whole entry): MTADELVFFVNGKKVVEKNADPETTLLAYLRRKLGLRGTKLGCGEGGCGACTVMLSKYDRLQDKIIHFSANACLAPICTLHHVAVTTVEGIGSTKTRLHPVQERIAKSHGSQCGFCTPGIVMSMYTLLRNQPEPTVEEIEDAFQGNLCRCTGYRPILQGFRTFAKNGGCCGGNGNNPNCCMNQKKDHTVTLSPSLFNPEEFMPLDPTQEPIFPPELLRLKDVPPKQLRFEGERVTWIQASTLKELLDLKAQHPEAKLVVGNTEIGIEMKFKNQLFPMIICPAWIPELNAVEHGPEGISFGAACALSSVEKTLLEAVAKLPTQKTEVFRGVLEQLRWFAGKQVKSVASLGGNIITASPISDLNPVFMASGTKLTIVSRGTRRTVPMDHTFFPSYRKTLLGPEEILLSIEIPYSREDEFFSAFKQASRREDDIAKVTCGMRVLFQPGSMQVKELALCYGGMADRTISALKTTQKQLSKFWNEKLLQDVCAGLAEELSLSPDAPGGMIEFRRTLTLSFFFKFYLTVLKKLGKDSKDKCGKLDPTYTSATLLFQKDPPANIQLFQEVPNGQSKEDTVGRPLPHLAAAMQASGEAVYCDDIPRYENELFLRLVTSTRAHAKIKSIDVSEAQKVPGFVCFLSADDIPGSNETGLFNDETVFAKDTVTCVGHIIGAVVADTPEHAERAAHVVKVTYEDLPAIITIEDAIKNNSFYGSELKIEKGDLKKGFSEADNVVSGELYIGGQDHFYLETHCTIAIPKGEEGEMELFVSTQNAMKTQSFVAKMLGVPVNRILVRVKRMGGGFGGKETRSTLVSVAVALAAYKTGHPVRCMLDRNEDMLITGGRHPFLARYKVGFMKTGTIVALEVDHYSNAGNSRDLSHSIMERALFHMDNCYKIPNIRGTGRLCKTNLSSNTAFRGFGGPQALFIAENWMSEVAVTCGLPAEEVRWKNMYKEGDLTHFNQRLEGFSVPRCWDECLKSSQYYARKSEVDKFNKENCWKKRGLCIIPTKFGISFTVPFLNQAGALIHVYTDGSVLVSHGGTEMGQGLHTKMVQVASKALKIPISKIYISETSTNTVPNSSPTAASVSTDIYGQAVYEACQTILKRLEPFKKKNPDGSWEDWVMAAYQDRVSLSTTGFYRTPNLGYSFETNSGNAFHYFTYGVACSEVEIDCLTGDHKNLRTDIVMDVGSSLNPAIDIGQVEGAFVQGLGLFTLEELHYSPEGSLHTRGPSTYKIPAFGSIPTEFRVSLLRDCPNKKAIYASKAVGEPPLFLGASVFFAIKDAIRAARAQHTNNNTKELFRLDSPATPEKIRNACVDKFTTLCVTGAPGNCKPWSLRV

Row | IC50 [1] [µM] | Compound | other results
1 | 45.4 | CC(=O)NC(CC(=O)c1ccc([N+](=O)[O-])cc1)c1ccc(Cl)cc1 (centres undefined) | –
2 | 44.6 | CC(=O)NC(CC(=O)c1ccc(Cl)cc1)c1ccc(C)cc1 (centres undefined) | –
3 | 40 | CC(=O)NC(CC(=O)c1cccc2ccccc12)c1ccccc1 (centres undefined) | –
4 | 15.2 | CC(=O)NC(CC(=O)c1ccco1)c1cccc([N+](=O)[O-])c1 (centres undefined) | Activity [2]: 7.01 µM; Activity [3]: 7.13 µM; Activity [4]: 6.98 µM
5 | 2.45 | CC(=O)NC(CC(=O)c1ccc2ccccc2c1)c1cccc(Br)c1 (centres undefined) | Activity [2]: 2.96 µM; Activity [3]: 3.21 µM; Activity [4]: 2.18 µM
6 | 42 | CC(=O)NC(CC(=O)c1ccc(Cl)cc1)c1ccccc1 (centres undefined) | –
7 | 78.3 | CC(=O)NC(/C=C/c1ccccc1)CC(=O)c1ccccc1 (centres undefined) | –
8 | 44 | CC(=O)NC(CC(=O)c1cccc2ccccc12)c1cccc([N+](=O)[O-])c1 (centres undefined) | –
9 | 48 | CC(=O)NC(CC(=O)c1ccc([N+](=O)[O-])cc1)c1ccccc1 (centres undefined) | –
10 | 91.6 | C[N+](=O)C(CC(=O)c1ccccc1)c1c2ccccc2cc2ccccc12 (centres undefined) | –
11 | 38.3 | CC(=O)NC(CC(=O)c1ccccc1)c1ccccc1 (centres undefined) | –
12 | 52.6 | COc1ccc(C(CC(=O)c2ccc([N+](=O)[O-])cc2)NC(C)=O)cc1 (centres undefined) | –
13 | 26 | CC(=O)NC(CC(=O)c1ccco1)c1ccccc1 (centres undefined) | –
14 | 42.2 | CC(=O)NC(CC(=O)c1cccc2ccccc12)c1cccc(Br)c1 (centres undefined) | –
15 | 44.3 | COc1ccc(C(CC(=O)c2ccccc2)NC(C)=O)cc1OC (centres undefined) | –
16 | 27 | CC(=O)NC(CC(=O)c1cccs1)c1ccccc1 (centres undefined) | –
17 | 21.7 | CC(=O)NC(CC(=O)c1cc(C)sc1C)c1ccc(Cl)cc1 (centres undefined) | –
18 | 43.2 | COc1ccc(OC)c(C(CC(=O)c2cccc(NC(C)=O)c2)NC(C)=O)c1 (centres undefined) | –
19 | 41 | CC(=O)NC(CC(=O)c1ccc(Cl)cc1)c1ccc(Cl)cc1 (centres undefined) | –
20 | 58.1 | O=C(CC(NC(=O)c1ccccc1)c1ccccc1)c1ccccc1 (centres undefined) | –
21 | 43.6 | O=C(CC(NC(=O)c1ccccc1)c1cccc([N+](=O)[O-])c1)c1ccccc1 (centres undefined) | –
22 | 28.5 | CC(=O)NC(CC(=O)c1ccccc1)c1ccc([N+](=O)[O-])cc1 (centres undefined) | –

Row | IC50 [1] [µM] | Compound | other results
23 | 65 | CC(=O)NC(CC(=O)c1ccccc1)c1cccs1 (centres undefined) | –
24 | 45 | COc1ccc(C(CC(=O)c2ccccc2)NC(C)=O)cc1 (centres undefined) | –
25 | 48.2 | COc1cc(C(CC(=O)c2ccccc2)NC(C)=O)cc(OC)c1OC (centres undefined) | –
26 | – | Oc1ncnc2[nH]ncc12 [ALLOPURINOL] | Activity [2]: 2.93 µM; Activity [3]: 3.19 µM; Activity [4]: 2.17 µM
27 | 28.1 | CC(=O)NC(CC(=O)c1ccccc1)c1cccc(Br)c1 (centres undefined) | –
28 | 29 | CC(=O)NC(CC(=O)c1ccccc1)c1ccc(C#N)cc1 (centres undefined) | –
29 | 26.2 | CC(=O)NC(CC(=O)c1ccccc1)c1cccc([N+](=O)[O-])c1 (centres undefined) | –
30 | 41.8 | CC(=O)Nc1cccc(C(=O)CC(NC(C)=O)c2ccc(Cl)cc2)c1 (centres undefined) | –
31 | 32 | CC(=O)Nc1cccc(C(=O)CC(NC(C)=O)c2cccc([N+](=O)[O-])c2)c1 (centres undefined) | –
32 | 59 | CC(=O)NC(CC(=O)c1ccccc1)c1cccc2ccccc12 (centres undefined) | –
33 | 53 | CC(=O)NC(CC(=O)c1ccccc1)c1ccc2ccccc2c1 (centres undefined) | –
34 | 8.5 | CC(=O)NC(CC(=O)c1ccc2ccccc2c1)c1ccccc1 (centres undefined) | Activity [2]: 4.22 µM; Activity [3]: 4.26 µM; Activity [4]: 4.14 µM
35 | 44 | COc1ccc(OC)c(C(CC(=O)c2ccccc2)NC(C)=O)c1 (centres undefined) | –
36 | 20 | COc1ccc(OC)c(C(CC(=O)c2cc(Cl)cs2)NC(C)=O)c1 (centres undefined) | –
37 | 46.1 | COc1ccc(C(CC(=O)c2ccccc2)NC(C)=O)c(OC)c1OC (centres undefined) | –
38 | 63 | CC(=O)NC(CC(=O)c1ccccc1)c1ccco1 (centres undefined) | –
39 | 27.1 | CC(=O)NC(CC(=O)c1ccccc1)c1ccc(Cl)cc1 (centres undefined) | –
40 | 32.3 | CC(=O)NC(CC(=O)c1ccccc1)c1ccccc1[N+](=O)[O-] (centres undefined) | –
41 | 19.8 | CC(=O)NC(CC(=O)c1cc(C)sc1C)c1cccc([N+](=O)[O-])c1 (centres undefined) | –
42 | 69.2 | CC(=O)Nc1cccc(C(=O)CC(/C=C/c2ccccc2)NC(C)=O)c1 (centres undefined) | –
43 | 22 | CC(=O)NC(CC(=O)c1cc(Cl)cs1)c1ccc(Cl)cc1 (centres undefined) | –

Source: ChEMBL document CHEMBL1817586, “N-(1,3-Diaryl-3-oxopropyl)amides as a new template for xanthine oxidase inhibitors” (Bioorg Med Chem, 2011)
